Reference: PubChem BioAssay AID330 (DTP/NCI, 2004)
“And” between values parts separate entries of the source, which are not always exact repeats. Equal values may be shown once. Inconclusive results and toxic doses are left out.

Tested on: P388 leukemia ip, CD2F1 mice, survival T/C
Assay: NCI In Vivo Anticancer Drug Screen. Data for tumor model P388 Leukemia (intraperitoneal) in CD2F1 (CDF1) mice
Settings: endpoint: median survival time, higher = longer survival
Summary of the method: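 Mice carrying the transplanted tumor received test compound or vehicle. Survival was recorded in each group, and the value is the treated-group measurement divided by that of the vehicle-treated control group.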

[1] = dose: 50.0 mg/kg/injection, schedule: Q01DX009 (ip), vehicle: Klucel (hydroxypropylcellulose) (HPC)
[2] = dose: 60.0 mg/kg/injection, schedule: Q01DX005 (ip), vehicle: Klucel (hydroxypropylcellulose) (HPC)
[3] = dose: 30.0 mg/kg/injection, schedule: Q01DX005 (ip), vehicle: Klucel (hydroxypropylcellulose) (HPC)
[4] = dose: 120.0 mg/kg/injection, schedule: Q01DX005 (ip), vehicle: Klucel (hydroxypropylcellulose) (HPC)
[5] = dose: 50.0 mg/kg/injection, schedule: Q01DX005 (ip), vehicle: saline with Tween-80
[6] = dose: 100.0 mg/kg/injection, schedule: Q01DX009 (ip), vehicle: saline with Tween-80

## COc1cc2c(c(OC)c1OC)-c1ccc(OC)c(=O)cc1[C@@H](NC(=O)c1ccc([N+](=O)[O-])cc1)CC2
dose: 0.25 mg/kg/injection, schedule: Q01DX009 (ip), vehicle: Klucel (hydroxypropylcellulose) (HPC)
  T/C: 109 % of control and 115 % of control
dose: 0.5 mg/kg/injection, schedule: Q01DX009 (ip), vehicle: Klucel (hydroxypropylcellulose) (HPC)
  T/C: 114 % of control
dose: 0.78 mg/kg/injection, schedule: Q01DX009 (ip), vehicle: Klucel (hydroxypropylcellulose) (HPC)
  T/C: 108 % of control
dose: 1.0 mg/kg/injection, schedule: Q01DX009 (ip), vehicle: Klucel (hydroxypropylcellulose) (HPC)
  T/C: 114 % of control and 124 % of control
dose: 1.56 mg/kg/injection, schedule: Q01DX009 (ip), vehicle: Klucel (hydroxypropylcellulose) (HPC)
  T/C: 112 % of control
dose: 2.0 mg/kg/injection, schedule: Q01DX009 (ip), vehicle: Klucel (hydroxypropylcellulose) (HPC)
  T/C: 124 % of control
dose: 3.12 mg/kg/injection, schedule: Q01DX009 (ip), vehicle: Klucel (hydroxypropylcellulose) (HPC)
  T/C: 160 % of control
dose: 4.0 mg/kg/injection, schedule: Q01DX009 (ip), vehicle: Klucel (hydroxypropylcellulose) (HPC)
  T/C: 166 % of control
dose: 6.25 mg/kg/injection, schedule: Q01DX009 (ip), vehicle: Klucel (hydroxypropylcellulose) (HPC)
  T/C: 198 % of control

## Cc1cc2nc3c(C4OCC(O)C4O)nn(-c4ccccc4)c3nc2cc1C (stereo not given)
dose: 3.12 mg/kg/injection, schedule: Q01DX005 (ip), vehicle: Klucel (hydroxypropylcellulose) (HPC)
  T/C: 93 % of control
dose: 6.25 mg/kg/injection, schedule: Q01DX005 (ip), vehicle: Klucel (hydroxypropylcellulose) (HPC)
  T/C: 88 % of control
dose: 50.0 mg/kg/injection, schedule: Q01DX005 (ip), vehicle: Klucel (hydroxypropylcellulose) (HPC)
  T/C: 88 % of control
dose: 100.0 mg/kg/injection, schedule: Q01DX005 (ip), vehicle: Klucel (hydroxypropylcellulose) (HPC)
  T/C: 93 % of control
dose: 200.0 mg/kg/injection, schedule: Q01DX005 (ip), vehicle: Klucel (hydroxypropylcellulose) (HPC)
  T/C: 103 % of control

## O=C1OCC/C1=C\c1ccco1
dose: 50.0 mg/kg/injection, schedule: Q01DX005 (ip), vehicle: acetone
  T/C: 119 % of control
dose: 100.0 mg/kg/injection, schedule: Q01DX005 (ip), vehicle: acetone
  T/C: 103 % of control

## CCCCCCCCCCCCCC(=O)Nc1ncc([N+](=O)[O-])s1
[1]
  T/C: 94 % of control
dose: 100.0 mg/kg/injection, schedule: Q01DX009 (ip), vehicle: Klucel (hydroxypropylcellulose) (HPC)
  T/C: 94 % of control
dose: 200.0 mg/kg/injection, schedule: Q01DX009 (ip), vehicle: Klucel (hydroxypropylcellulose) (HPC)
  T/C: 100 % of control

## CCN(CC)CCOCC1CC2C(C=C1C)C2(C)C (stereo not given)
dose: 50.0 mg/kg/injection, schedule: Q01DX005 (ip), vehicle: saline
  T/C: 107 % of control
dose: 100.0 mg/kg/injection, schedule: Q01DX005 (ip), vehicle: saline
  T/C: 98 % of control

## CN(C)C1C[C@@H](O[Si](C)(C)C(C)(C)C)C=C1S(=O)(=O)c1ccccc1 (stereo not given in full)
[2]
  T/C: 87 % of control

## CC(C)N(c1ccnc(F)n1)C(C)C
[3]
  T/C: 102 % of control
[2]
  T/C: 104 % of control

## CCC[P+](CCC)(CCC)CCCCCCCCCC[P+](CCC)(CCC)CCC
dose: 0.19 mg/kg/injection, schedule: Q01DX009 (ip), vehicle: saline
  T/C: 106 % of control
dose: 0.39 mg/kg/injection, schedule: Q01DX009 (ip), vehicle: saline
  T/C: 100 % of control
dose: 0.79 mg/kg/injection, schedule: Q01DX009 (ip), vehicle: saline
  T/C: 88 % of control

## Oc1cccc(/C=N/N2CCc3ccccc3C2)c1
dose: 50.0 mg/kg/injection, schedule: Q01DX001 (ip), vehicle: Klucel (hydroxypropylcellulose) (HPC)
  T/C: 96 % of control
dose: 100.0 mg/kg/injection, schedule: Q01DX001 (ip), vehicle: Klucel (hydroxypropylcellulose) (HPC)
  T/C: 100 % of control
dose: 200.0 mg/kg/injection, schedule: Q01DX001 (ip), vehicle: Klucel (hydroxypropylcellulose) (HPC)
  T/C: 92 % of control

## CCOC(=O)c1ccc(N=C(C2=C(O)c3ccccc3C2=O)c2ccccc2)cc1
dose: 25.0 mg/kg/injection, schedule: Q04DX002 (ip), vehicle: saline with Tween-80
  T/C: 92 % of control
dose: 50.0 mg/kg/injection, schedule: Q04DX002 (ip), vehicle: saline with Tween-80
  T/C: 101 % of control
dose: 100.0 mg/kg/injection, schedule: Q04DX002 (ip), vehicle: saline with Tween-80
  T/C: 95 % of control

## CC1Nc2ccccc2NC1C (stereo not given)
dose: 6.25 mg/kg/injection, schedule: Q01DX009 (ip), vehicle: saline + Tween-80 + alcohol
  T/C: 98 % of control
dose: 12.5 mg/kg/injection, schedule: Q01DX009 (ip), vehicle: saline + Tween-80 + alcohol
  T/C: 96 % of control
dose: 25.0 mg/kg/injection, schedule: Q01DX009 (ip), vehicle: saline + Tween-80 + alcohol
  T/C: 99 % of control and 95 % of control
dose: 50.0 mg/kg/injection, schedule: Q01DX009 (ip), vehicle: saline + Tween-80 + alcohol
  T/C: 91 % of control
dose: 100.0 mg/kg/injection, schedule: Q01DX009 (ip), vehicle: saline + Tween-80 + alcohol
  T/C: 100 % of control

## COc1ccc(C2OC3=C(Nc4ccc(Cl)cc4N3)C2=O)cc1 (stereo not given)
[3]
  T/C: 98 % of control
[2]
  T/C: 94 % of control
[4]
  T/C: 93 % of control and 97 % of control
dose: 240.0 mg/kg/injection, schedule: Q01DX005 (ip), vehicle: Klucel (hydroxypropylcellulose) (HPC)
  T/C: 98 % of control

## COC(=O)C1C2CCCN2OC1(C)CO (stereo not given)
dose: 7.5 mg/kg/injection, schedule: Q01DX005 (ip), vehicle: saline
  T/C: 100 % of control
dose: 15.0 mg/kg/injection, schedule: Q01DX005 (ip), vehicle: saline
  T/C: 106 % of control
dose: 60.0 mg/kg/injection, schedule: Q01DX005 (ip), vehicle: saline
  T/C: 203 % of control
dose: 120.0 mg/kg/injection, schedule: Q01DX005 (ip), vehicle: saline
  T/C: 96 % of control
dose: 240.0 mg/kg/injection, schedule: Q01DX005 (ip), vehicle: saline
  T/C: 99 % of control

## CN(C)c1ccc(N=NN=c2n(C)c3ccccc3n2C)c(Cl)c1
dose: 6.25 mg/kg/injection, schedule: Q01DX005 (ip), vehicle: saline with Tween-80
  T/C: 103 % of control
dose: 12.5 mg/kg/injection, schedule: Q01DX005 (ip), vehicle: saline with Tween-80
  T/C: 106 % of control and 109 % of control
dose: 25.0 mg/kg/injection, schedule: Q01DX005 (ip), vehicle: saline with Tween-80
  T/C: 113 % of control and 115 % of control
[5]
  T/C: 117 % of control

## CC(=O)c1c(O)c2ccc(Cl)cc2[nH]c1=O
[5]
  T/C: 99 % of control
dose: 100.0 mg/kg/injection, schedule: Q01DX005 (ip), vehicle: saline with Tween-80
  T/C: 96 % of control
dose: 200.0 mg/kg/injection, schedule: Q01DX005 (ip), vehicle: saline with Tween-80
  T/C: 99 % of control

## O=C(Nc1ccc(C2=NCCN2)cc1)C1CCC(C(=O)Nc2ccc(C3=NCCN3)cc2)CC1 (stereo not given)
[6]
  T/C: 227 % of control
dose: 100.0 mg/kg/injection, schedule: Q04DX003 (ip), vehicle: saline with Tween-80
  T/C: 154 % of control
dose: 200.0 mg/kg/injection, schedule: Q01DX009 (ip), vehicle: saline with Tween-80
  T/C: 209 % of control
dose: 200.0 mg/kg/injection, schedule: Q04DX003 (ip), vehicle: saline with Tween-80
  T/C: 186 % of control
dose: 264.0 mg/kg/injection, schedule: Q04DX003 (ip), vehicle: saline with Tween-80
  T/C: 213 % of control
dose: 400.0 mg/kg/injection, schedule: Q01DX009 (ip), vehicle: saline with Tween-80
  T/C: 118 % of control
dose: 400.0 mg/kg/injection, schedule: Q04DX003 (ip), vehicle: saline with Tween-80
  T/C: 231 % of control and 254 % of control
dose: 600.0 mg/kg/injection, schedule: Q04DX003 (ip), vehicle: saline with Tween-80
  T/C: 236 % of control

## N#Cc1nnc2cc(-c3ccccc3)nn2c1-c1ccco1
[2]
  T/C: 98 % of control
[4]
  T/C: 90 % of control

## CCCOC(=O)C1C2CCC(O2)C1C(=O)O (stereo not given)
dose: 6.25 mg/kg/injection, schedule: Q01DX005 (ip), vehicle: saline
  T/C: 106 % of control
dose: 12.5 mg/kg/injection, schedule: Q01DX005 (ip), vehicle: saline
  T/C: 103 % of control

## N=C=S.N=C=S.O=[N+]([O-])O.[Co+3].[NH2-].[NH2-].[NH2-].[NH2-]
[1]
  T/C: 113 % of control

## COC(=O)C1(C(C)C)N=C(c2ccccc2)OO1 (stereo not given)
dose: 25.0 mg/kg/injection, schedule: Q01DX009 (ip), vehicle: saline with Tween-80
  T/C: 91 % of control
dose: 50.0 mg/kg/injection, schedule: Q01DX009 (ip), vehicle: saline with Tween-80
  T/C: 100 % of control
[6]
  T/C: 104 % of control
